In US7348421B1, “Methods for production of p-hydroxybenzoate in bacteria” (North Carolina State University, priority 2000, dated 2008):
Values joined by “and” are separate entries in the source; they are usually repeats but may differ in a detail not shown here. Equal values may be shown once. Read-outs that look alike come from different tables or passages of the source.

What was measured:
[1] = test system: P. mendocina krc16DkpobA51a (#303); assay type: cell-based, Pseudomonas mendocina; settings: gradient 0-100 mg/L, repeated lines
[2] = test system: Pseudomonas putida DOT-T1E; test: Halo-inhibition test with antibiotic disks on minimal medium; assay type: cell-based; settings: wild-type; Halo-inhibition test
[3] = test system: P. mendocina KR1-A (#362); assay type: cell-based, Pseudomonas mendocina; settings: gradient 0-100 mg/L, repeated lines
Pseudomonas fluorescens = assay type: cell-based; settings: gradient of PHBA between 0 and 30 g/L
[4] = test system: P. putida PhoA5 with pPAT8; settings: gradient 0-20 g/L
E. coli K12 (#327) = settings: gradient 0 to 40 g/L, 24 h, 30° C.
strain F (DGL#325) = test: Selection on TSA plates with toluene and pHBA; assay type: cell-based, Pseudomonas mendocina; settings: 100 ppm toluene, after few day of incubation
Description: Three more transfers were made in a TSA medium plus 10 g/L glucose, 100 mg/L cycloheximide, 5 g/L agar (Difco), and increasing concentrations of pHBA. The pH was adjusted to 7.2. Toluene to 100 ppm was added to the bottom of the glass desicator as a mixture of hexadecane:toluene (262 mL:26.5 mL). This mixture was expected to give 100 ppm toluene in the liquid phase in equilibrium. […]. Under microscope strain C grew in long chains.

Pseudomonas stutzeri = assay type: cell-based; settings: gradient of PHBA between 0 and 30 g/L
Ralstonia solanacearum = assay type: cell-based; settings: gradient of PHBA between 0 and 30 g/L
strain C = test: Selection on TSA plates with toluene and pHBA; assay type: cell-based; settings: 100 ppm toluene
Description: Three more transfers were made in a TSA medium plus 10 g/L glucose, 100 mg/L cycloheximide, 5 g/L agar (Difco), and increasing concentrations of pHBA. The pH was adjusted to 7.2. Toluene to 100 ppm was added to the bottom of the glass desicator as a mixture of hexadecane:toluene (262 mL:26.5 mL). This mixture was expected to give 100 ppm toluene in the liquid phase in equilibrium. Selected strains C and F (DGL#325) grew on 40 g/L pHBA after few day of incubation, strain C grew at 50 g/l pHBA after 10 days of incubation. Under microscope strain C grew in long chains.

Pseudomonas putida R1 = assay type: cell-based; settings: gradient of PHBA between 0 and 30 g/L
Escherichia coli ET8000 = assay type: cell-based; settings: gradient of PHBA between 0 and 30 g/L
Bacillus subtilis = assay type: cell-based; settings: gradient of PHBA between 0 and 30 g/L
Pseudomonas vesicularis = assay type: cell-based; settings: gradient of PHBA between 0 and 30 g/L
Pseudomonas aeruginosa = assay type: cell-based; settings: gradient of PHBA between 0 and 30 g/L
[5] = test system: P. putida KT2440 with pPAT7; settings: gradient 0-20 g/L
[6] = test system: P. putida KT2440 with pPAT8; settings: gradient 0-20 g/L
P. putida KT2440 = settings: P. putida KT2440, plasmid none; gradient 0-20 g/L
P. mendocina KR1 = settings: P. mendocina KR1, plasmid none, gradient 0-20 g/L
Enriched cultures = test: Selection on TSA plates with toluene and pHBA; assay type: cell-based; settings: dodecane:toluene overlay (100 ppm toluene)
Description: Five transfers were made on glass plates with trypticase soy agar (TSA-Difco) medium with 10 g/L glucose. Toluene (˜0.5 mL) was added to the bottom of the inverted plates, saturating the medium and the gas phase. […]. This mixture was calculated to give 100 ppm toluene concentration in the liquid phase. […]

[7] = test system: P. mendocina krc16DkpobA51a (#303); settings: gradient 0 to 40 g/L, 24 h, 30° C.
[8] = test system: P. mendocina KR1 with pPAT8; settings: gradient 0-20 g/L
PhoA5 mutant = test: Survival after sudden pHBA shock with or without Fe-citrate; assay type: cell-based, Pseudomonas putida
P. mendocina KR1 (#363) = test: Growth on pHBA gradient plates; settings: gradient 0 to 40 g/L, 24 h, 30° C.
[9] = test system: Acinetobacter calcoaceticus; assay type: cell-based; settings: gradient of PHBA between 0 and 30 g/L
[10] = test system: Pseudomonas putida DOT-T1E; test: Growth in M9 liquid medium with glucose and p-hydroxybenzoate; assay type: cell-based; settings: M9 with glucose
[11] = test system: P. mendocina KR1 with pPAT7; settings: gradient 0-20 g/L
Alcaligenes eutrophus = assay type: cell-based; settings: gradient of PHBA between 0 and 30 g/L
Pseudomonas putida EEZ10 = assay type: cell-based; settings: gradient of PHBA between 0 and 30 g/L
[12] = test system: Pseudomonas putida DOT-T1E; test: pHBA shock after preculture on pHBA, 1 or 10 mM MgSO4; assay type: cell-based
DOT-T1E = assay type: cell-based, Pseudomonas putida; settings: wild-type, 0.3% (vol/vol) toluene
toluene-tolerant strain = test: Enrichment selection in flasks, toluene; assay type: cell-based; settings: slow rate of growth
Description: Using a similar procedure with toluene, a toluene-tolerant strain (with a slow rate of growth on 150 ppm of toluene) was obtained. Adding 10 mM MgSO4 increased the tolerance of the organism to toluene.

O=C(N[C@H](CO)[C@H](O)c1ccc([N+](=O)[O-])cc1)C(Cl)Cl [CAM, chloramphenicol]
Growth (distance in mm) on CAM gradient [1]: 10 mm and 15 mm
tolerance/sensitivity to antibiotic [2]: tolerant
Growth (distance in mm) on CAM gradient [3]: 15 mm and 10 mm

O=C(O)c1ccc(O)cc1 [pHBA, p-hydroxybenzoic acid]
pHBA tolerance or sensitivity (Pseudomonas fluorescens): sensitive
pHBA Tolerance [4]: 17 g/L
growth on pHBA gradient plates (E. coli K12 (#327)): 35 mm and 20 mm
pHBA concentration at which strain grew (strain F (DGL#325)): 40 g/L
pHBA tolerance or sensitivity (Pseudomonas stutzeri): sensitive
pHBA tolerance or sensitivity (Ralstonia solanacearum): sensitive
pHBA concentration at which strain grew (strain C; after 10 days of incubation): 50 g/l
pHBA concentration at which strain grew (strain C; after few day of incubation): 40 g/L
pHBA tolerance or sensitivity (Pseudomonas putida R1): tolerant
pHBA tolerance or sensitivity (Escherichia coli ET8000): tolerant
pHBA tolerance or sensitivity (Bacillus subtilis): sensitive
pHBA tolerance or sensitivity (Pseudomonas vesicularis): sensitive
pHBA tolerance or sensitivity (Pseudomonas aeruginosa): sensitive
pHBA Tolerance [5]: 17 g/L
pHBA Tolerance [6]: 18.5 g/L
pHBA Tolerance (P. putida KT2440): 17 g/L
pHBA Tolerance (P. mendocina KR1): 8.5 g/L
pHBA Tolerance (P. mendocina KR1; listed as PHBA): about 8.5 g/L
pHBA concentration at which cultures grew (Enriched cultures): 20 g/L
growth on pHBA gradient plates [7]: 10 mm and 15 mm
pHBA Tolerance [8]: 10.2 g/L
pHBA Tolerance ([8]; listed as PHBA): ~10 g/L
survival after pHBA shock (PhoA5 mutant; 12 g/L PHBA, absence of iron): about 0.0001%
survival after pHBA shock (PhoA5 mutant; 12 g/L PHBA, with extra iron (Fe-citrate)): ~100%
survival after pHBA shock (PhoA5 mutant; 18 g/L, absence of iron): no cells survived
survival after pHBA shock (PhoA5 mutant; 18 g/L, supplemented with iron): 0.001%
growth on pHBA gradient plates (P. mendocina KR1 (#363)): 10 mm and 20 mm
pHBA tolerance or sensitivity [9]: tolerant
growth (CFU per mL) ([10]; 6 g/L of p-hydroxybenzoate): growth was exponential
growth (CFU per mL) ([10]; 12 or higher g/L p-hydroxybenzoate): number of viable cells decreased
pHBA Tolerance [11]: ~10 g/L
pHBA tolerance or sensitivity (Alcaligenes eutrophus): sensitive
pHBA tolerance or sensitivity (Pseudomonas putida EEZ10): tolerant
cell viability after pHBA shock ([12]; cells not pregrown on pHBA, 30 and 36 g/L, 24 h after the shock): no cells were recovered
cell viability after pHBA shock ([12]; cells not pregrown on pHBA, >18 g/L, 1 or 10 mM MgSO4): marked decrease in cell viability
cell viability after pHBA shock ([12]; preinduced cells, 30 and 36 g/L pHBA, 1 mM MgSO4, 24 h after the shock): cells were not recoverable
decrease in number of viable cells after pHBA shock ([12]; preinduced cells, 30 g/L, 10 mM MgSO4, growth resumed afterwards): ~6 orders of magnitude
cell viability after pHBA shock ([12]; preinduced cells, up to 0.18 g/L PHBA, regardless of MgSO4): no significant effect on cell viability

Cc1ccccc1 [toluene]
survival of toluene shock (DOT-T1E; cells pre-exposed to toluene in the gas phase): tolerated the shock
loss of viability after sudden exposure to toluene (DOT-T1E; non-pre-exposed cells): 5 orders of magnitude
toluene concentration at which the strain grew (toluene-tolerant strain): 150 ppm
